Reference: patent US6555055B1, “System for preventing and remediating biofilms in dental equipment” (Lynntech, Inc., priority 1998, dated 2003)

Legend:
[1] = test system: bacteria; conditions: cited from earlier work
[2] = test system: established biofilm in a previously used dental unit
Source text: The experiment consisted of first re-invigorating an established biofilm in a previously used dental unit (A-Dec, a 1980 model) by running tap water, which had been determined to have a bacterial count of 10^4 cfu/mL, through the apparatus at hourly intervals between 9:00 a.m. and 4:00 p.m. for a total of 10 days. […] This limited the organisms monitored to those originating from the biofilm.
Only one bottle was used at a time, either one containing deionized water (filtered through a 0.2 micron filter), or one containing a 1% H2O2 solution (Kroger brand 3%, diluted with deionized water to a 1% solution). Every morning at 9:00 a.m., the H2O2 bottle was connected to the compressed air cylinder and the junction box (which connects the reservoir to the dental cart). The second air cylinder was directly connected to the junction box which provided air to the dental cart tools and allowed the peroxide or water solution to be misted out of the high-speed handpiece to simulate dental office use. Both air cylinders were opened, and H2O2 was run through the unit by pressurizing the bottle. A 50 mL bolus of the H2O2 solution was run through as the line to the dental cart/handpiece holds approximately 40 mL. The H2O2 bottle was then removed, and the bottle containing only water was connected into the set-up in exactly the same way. Approximately 150 mL of water were run through the unit to ensure that all of the H2O2 was rinsed out of the line. For the remainder of the day, to simulate normal operation in a dentist's office where the water is left stagnant 99% of the time, the line was flushed with 150 mL of water every hour. At 4:00 p.m., a 2 mL sample of water was collected from the high-speed handpiece into a 15 mL sterile centrifuge tube (Fisher brand). […] The plates were counted using a MANOSTAT brand colony counter after 2-3 days incubation time at 37° C., selected as the optimal growth temperature for human pathogens.
After the H2O2 treatment, 150 mL of sterile, deionized water was run through the unit at hourly intervals between the hours of 9:00 a.m. and 4:00 p.m. to simulate normal dental office operating conditions, where water is left stagnant most of the time. On day 35, the unit was treated for 4 days with 2% H2O2 in the same manner previously described. This was done to assess the effect of higher concentrations of peroxide on the biofilm.
On day 40, the peroxide treatment procedure was changed slightly. Instead of applying the 2% H2O2 solution in the morning it remained in the dental lines overnight. From 9.00 a.m. to 4 p.m. daily the unit was flushed with 150 mL of sterile water. […] At 9.00 a.m., the following morning, the sterile water flushes began again.
At the end of the day after the last flushing, a 2 mL sample of water was collected from the hand piece. […]

Structure (SMILES): OO [hydrogen peroxide]
- Effect against a broad range of pathogens ([1]; 3%, Juven and Pierson): quite effective
- Minimum level for use in an acidic sanitizing solution (lowest concentration described as effective as a germicide) ([1]; 21 CFR Part 178.1010 (c) (39), food utensils and food handling surfaces): ≥ 72 ppm
- Concentration for bacteriostatic activity ([1]; Juven and Pierson): 0.0005%
- Onset of bactericidal activity ([1]; Juven and Pierson): 0.0034%
- Concentration required for broad bactericidal action over a short time span (minutes) ([1]; Thomas et. al.): at least 0.1%
- Concentrations suppressing bacterial growth (bacteriostatic action) ([1]; Thomas et. al.): ≥ 0.0007%
- Concentrations of biostatic control [1]: < 0.1%
- Concentrations of efficient biocidal control [1]: 1%
- Concentrations at which it is a potent bacteriostat ([1]; known): less than 100 ppm
- Level demonstrated to be effective against existing biofilms [2]: 2%
- Microbial load of water from the high-speed handpiece ([2]; 1% H2O2 applied in the morning, sample in the afternoon after hourly flushings, initial applications (Region II)): < 200 cfu/mL
- Bacterial count of water from the handpiece ([2]; 2% H2O2 left in the lines overnight, from day 40 onwards, initial results): < 200 cfu/mL
- Bacterial cell counts ([2]; 2% solution, applied in the morning, from day 35 for 4 days (Region IV)): lower bacterial cell counts than a 1% solution
